One assay deals with T1, aldose reductase (Bos taurus, UniProt P16116).
T1 construct: partially purified aldose reductase enzyme obtained from calf lens; from tissue; host or cells: calf lens
Kind of assay: Aldose reductase inhibitory activity. It is filed as biochemical, calf lens (partially purified enzyme). Conditions: partially purified aldose reductase from calf lens; read-out: 50% Inhibitory Concentration. The method, then: The derivatives prepared in Examples 1-6 were tested for their ability to reduce or inhibit aldose reductase enzyme activity, following the procedure described in U.S. Pat. No. 3,821,383 and based on the procedure of Hayman et. al., Journal of Biological Chemistry, 240, 877 (1965). The substrate employed was partially purified aldose reductase enzyme obtained from calf lens. The drug was tested to determine the concentration that would cause 50 percent inhibition of enzyme activity.

For assay [1], the system named is sorbitol accumulation in the sciatic nerve. In words: Inhibition of sorbitol accumulation in the sciatic nerve of streptozotocinized (diabetic) rats. It is filed as in vivo. Conditions: oral at 4, 8 and 24 h after streptozotocin, rat sciatic nerve, 27 h after induction of diabetes. The method, then: Some of the Examples of derivatives prepared above were also tested for their ability to reduce or inhibit sorbitol accumulation in the sciatic nerve of streptozotocinized (i.e., diabetic) rats essentially by the procedure described in U.S. Pat. No. 3,821,383. In the present study, the amount of sorbitol accumulation in the sciatic nerves was measured 27 hours after induction of diabetes. The compounds were administered orally at the dose level indicated at 4, 8 and 24 hours following the administration of streptozotocin. The results obtained in this manner are presented in terms of percent inhibition (%) afforded by the test compound compared to the control where no compound was administered (i.e., the untreated animal where sorbitol levels normally rise from approximately […] tissue to as high as […] tissue in the 27-hour test period).

SMILES strings stand for the structures. Some results are limits rather than exact numbers.

With `O=C1NC(=O)C2(CCC(c3ccccc3)c3ccccc32)N1` (stereo not shown) [Example 2, 1',2',3',4'-tetrahydro-1'-phenyl-spiro[imidazolidine-4,4'-naphthalene]-2,5-dione], at aldose reductase, the IC50 is 100 µM. In addition, the “% Inhibition (sorbitol accumulation)” value in assay [1] (25 mg./kg. t.i.d.) amounted to 27%.

As for `O=C1NC(=O)C2(CCOc3ccc(Oc4ccccc4)cc32)N1` (stereo not shown) [Example 5, 6'-phenoxy-spiro[imidazolidine-4,4'-chroman]-2,5-dione], the IC50 at aldose reductase was 10 µM. Further, the “% Inhibition (sorbitol accumulation)” value in assay [1] (1.5 mg./kg. t.i.d.) amounted to 0%.

With `O=C1NC(=O)C2(N1)c1ccccc1CCC2c1ccccc1` (stereo not shown) [Example 1, 1',2',3',4'-tetrahydro-3'-phenyl-spiro[imidazolidine-4,4'-naphthalene]-2,5-dione], the IC50 on aldose reductase was > 100 µM. Further, in assay [1] (25 mg./kg. t.i.d.), the “% Inhibition (sorbitol accumulation)” value is listed as 18%.

As for `O=C1NC(=O)C2(CCOc3ccc(-c4ccccc4)cc32)N1` (stereo not shown) [Example 3, 6'-phenyl-spiro[imidazolidine-4,4'-chroman]-2,5-dione], the “% Inhibition (sorbitol accumulation)” value in assay [1] (1.5 mg./kg. t.i.d.) is 0%.

Consider `O=C1NC(=O)C2(CCOc3c(-c4ccccc4)cccc32)N1` (stereo not shown) [Example 4, 8'-phenyl-spiro[imidazolidine-4,4'-chroman]-2,5-dione], for which the IC50 at aldose reductase stood at 1 µM. In addition, the “% Inhibition (sorbitol accumulation)” value in assay [1] (10 mg./kg. t.i.d.) came to 54%.

As for `O=C1NC(=O)C2(CCOc3c(Cl)cc(-c4ccccc4)cc32)N1` (stereo not shown) [Example 6, 8'-chloro-6'-phenyl-spiro[imidazolidine-4,4'-chroman]-2,5-dione], the IC50 at aldose reductase was found to be 10 µM.

The values are drawn from US4181729A, “Phenyl or phenoxy substituted spiro-imidazolidinedione derivatives” (Pfizer Inc., priority 1979, dated 1980).
